Results on one compound are retold here after patent US20250195517A1, “TREATMENT OF INTRACRANIAL HEMORRHAGE” (ImmunoChem Therapeutics, LLC, priority 2022, published 2025).

Each structure is given as a SMILES string.

The assay relates to animal models of acute brain injuries such as intracranial hemorrhage. The assay is described as follows: animal models of acute brain injuries such as intracranial hemorrhage. The assay is classed as in vivo. From the text:
MW189 is a novel small molecule drug candidate developed as a selective suppressor of disease- and injury-induced proinflammatory cytokine overproduction associated with destructive neuroinflammation/synaptic dysfunction cycles. […] The investigators seek to establish if these targets are modified in humans with intracranial hemorrhage.

Take `c1ccc(-c2cc(-c3ccncc3)c(N3CCN(c4ncccn4)CC3)nn2)cc1` [MW189]: the cerebral edema result was “reduces cerebral edema”; the “functional and cognitive performance” value is “improves functional and cognitive performance”; the neuroinflammation result is listed as “attenuates neuroinflammation”.
